Data reported in ChEMBL document CHEMBL1201862, “PubChem BioAssay data set” (2004).
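How tested: cells in 96-well plates exposed to compound for 48 hours at five concentrations. GI50: concentration for 50% inhibition of growth.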 The source made the active and inactive calls. Rule as the data show it: active = GI50 up to about 1.1 µM and inactive = higher.

What was measured:
Assay in all cases: NCI-60 cell line screen, 48 h
UACC-257 = test system: UACC-257
T47D = test system: T47D
CAKI-1 = test system: CAKI-1
A549 = test system: A549
SF-295 = test system: SF-295
UO-31 = test system: UO-31
SNB-19 = test system: SNB-19
NCI-H226 = test system: NCI-H226
HCC 2998 = test system: HCC 2998
SK-MEL-5 = test system: SK-MEL-5
K562 = test system: K562
NCI-H23 = test system: NCI-H23
HCT-116 = test system: HCT-116
OVCAR-8 = test system: OVCAR-8
SNB-75 = test system: SNB-75
SK-MEL-2 = test system: SK-MEL-2
SR = test system: SR
PC-3 = test system: PC-3
MDA-MB-231 = test system: MDA-MB-231
MDA-N = test system: MDA-N

SMILES	GI50 (UACC-257)	GI50 (T47D)	GI50 (CAKI-1)	GI50 (A549)	GI50 (SF-295)	GI50 (UO-31)	GI50 (SNB-19)	GI50 (NCI-H226)	GI50 (HCC 2998)	GI50 (SK-MEL-5)	GI50 (K562)	GI50 (NCI-H23)	GI50 (HCT-116)	GI50 (OVCAR-8)	GI50 (SNB-75)	GI50 (SK-MEL-2)	GI50 (SR)	GI50 (PC-3)	GI50 (MDA-MB-231)	GI50 (MDA-N)
O=c1c(Cl)c(Cl)cnn1CCCl	4.46 µM (inactive)	3.34 µM (inactive)	2.27 µM (inactive)	17.9 µM (inactive)	16 µM (inactive)	5.75 µM (inactive)	7.03 µM (inactive)	23.2 µM (inactive)	3.34 µM (inactive)	3.4 µM (inactive)	2.06 µM (inactive)	2.52 µM (inactive)	5.48 µM (inactive)	3.44 µM (inactive)	11.1 µM (inactive)	–	–	–	–	–
COc1ccc2c3c([nH]c2c1CC=C(C)C)C(=O)C=C(C)C3=O	> 25 µM (inactive)	–	> 25 µM (inactive)	> 25 µM (inactive)	> 25 µM (inactive)	> 25 µM (inactive)	> 25 µM (inactive)	> 25 µM (inactive)	> 25 µM (inactive)	> 25 µM (inactive)	> 25 µM (inactive)	> 25 µM (inactive)	16.2 µM (inactive)	> 25 µM (inactive)	14.4 µM (inactive)	> 25 µM (inactive)	24.5 µM (inactive)	–	–	–
Cc1ccc(-c2n[nH]c(CC#N)n2)cc1	> 100 µM (inactive)	> 100 µM (inactive)	> 100 µM (inactive)	> 100 µM (inactive)	> 100 µM (inactive)	> 100 µM (inactive)	0.608 µM (active)	–	> 100 µM (inactive)	> 100 µM (inactive)	> 100 µM (inactive)	> 100 µM (inactive)	> 100 µM (inactive)	> 100 µM (inactive)	> 100 µM (inactive)	> 100 µM (inactive)	> 100 µM (inactive)	> 100 µM (inactive)	–	–
CCOP(=O)(C/C(=N/NC(C)(C)C)C(=O)Nc1nc2ccc(C)cc2s1)OCC	> 100 µM (inactive)	–	> 100 µM (inactive)	> 100 µM (inactive)	> 100 µM (inactive)	> 100 µM (inactive)	> 100 µM (inactive)	> 100 µM (inactive)	> 100 µM (inactive)	> 100 µM (inactive)	> 100 µM (inactive)	> 100 µM (inactive)	> 100 µM (inactive)	> 100 µM (inactive)	> 100 µM (inactive)	> 100 µM (inactive)	> 100 µM (inactive)	–	–	–
CC(C)=Cc1cc(CCC/C(C)=C/Cc2c(O)cc(C)c(C(=O)O)c2O)co1	> 100 µM (inactive)	67.1 µM (inactive)	> 100 µM (inactive)	> 100 µM (inactive)	> 100 µM (inactive)	> 100 µM (inactive)	> 100 µM (inactive)	–	> 100 µM (inactive)	> 100 µM (inactive)	0.203 µM (active)	> 100 µM (inactive)	> 100 µM (inactive)	84.9 µM (inactive)	> 100 µM (inactive)	> 100 µM (inactive)	–	> 100 µM (inactive)	39 µM (inactive)	–
N[C@@H]1CCN(c2c(F)cc3c(=O)c(C(=O)O)cn4c3c2Oc2c-4ccc3c2ccc2ccccc23)C1	5.42 µM (inactive)	–	6.53 µM (inactive)	2.39 µM (inactive)	1.92 µM (inactive)	3.24 µM (inactive)	0.344 µM (active)	19.9 µM (inactive)	0.494 µM (active)	1.44 µM (inactive)	3.1 µM (inactive)	3.1 µM (inactive)	1.08 µM (active)	1.38 µM (inactive)	–	7.8 µM (inactive)	0.225 µM (active)	2.82 µM (inactive)	–	1.55 µM (inactive)
O=C1C(c2c(O)[nH]c3ccc(F)cc23)=Nc2ccccc21	> 100 µM (inactive)	–	> 100 µM (inactive)	> 100 µM (inactive)	27.4 µM (inactive)	> 100 µM (inactive)	26.5 µM (inactive)	> 100 µM (inactive)	> 100 µM (inactive)	> 100 µM (inactive)	44.2 µM (inactive)	73.1 µM (inactive)	> 100 µM (inactive)	8.13 µM (inactive)	3.21 µM (inactive)	14.5 µM (inactive)	> 100 µM (inactive)	> 100 µM (inactive)	12.9 µM (inactive)	> 100 µM (inactive)
Cc1cc(Br)cc(C)c1NC(=O)C(=O)C(C(=O)c1ccc2ccccc2c1)C1OC(=O)c2ccccc21 (stereo not drawn)	10.7 µM (inactive)	–	15.7 µM (inactive)	22.4 µM (inactive)	4.59 µM (inactive)	15.8 µM (inactive)	8 µM (inactive)	4.85 µM (inactive)	11 µM (inactive)	11.2 µM (inactive)	5.93 µM (inactive)	7.53 µM (inactive)	8.91 µM (inactive)	7.18 µM (inactive)	14.3 µM (inactive)	16 µM (inactive)	2.47 µM (inactive)	–	–	–
Cc1ccc(NC(=O)CCC(=O)C2Cc3ccccc3C2=O)cc1C (stereo not drawn)	> 100 µM (inactive)	–	> 100 µM (inactive)	> 100 µM (inactive)	> 100 µM (inactive)	> 100 µM (inactive)	> 100 µM (inactive)	> 100 µM (inactive)	> 100 µM (inactive)	> 100 µM (inactive)	> 100 µM (inactive)	> 100 µM (inactive)	> 100 µM (inactive)	> 100 µM (inactive)	> 100 µM (inactive)	> 100 µM (inactive)	> 100 µM (inactive)	–	–	–
CC(C)(CN1C(=O)C(Cl)=C(Cl)C1=O)CN1C(=O)C(Cl)=C(Cl)C1=O	13.9 µM (inactive)	–	8.15 µM (inactive)	35.5 µM (inactive)	24.3 µM (inactive)	31.6 µM (inactive)	23 µM (inactive)	22.5 µM (inactive)	12 µM (inactive)	22.1 µM (inactive)	1.64 µM (inactive)	11.7 µM (inactive)	11.5 µM (inactive)	6.34 µM (inactive)	22.2 µM (inactive)	18.8 µM (inactive)	2.58 µM (inactive)	–	–	–
COc1cc2ccnc(-c3n[nH]c4cc(OC)c(OC)cc34)c2cc1OC	> 100 µM (inactive)	–	> 100 µM (inactive)	> 100 µM (inactive)	> 100 µM (inactive)	> 100 µM (inactive)	> 100 µM (inactive)	> 100 µM (inactive)	> 100 µM (inactive)	> 100 µM (inactive)	> 100 µM (inactive)	> 100 µM (inactive)	> 100 µM (inactive)	> 100 µM (inactive)	> 100 µM (inactive)	> 100 µM (inactive)	> 100 µM (inactive)	–	–	–
COc1ccc(CN2C(=O)C(Cc3cc(OC)c(OC)c(C)c3OC)N(C(=O)OC(C)C)C(=O)/C2=C/c2cc(OC)c(OC)c(C)c2OC)cc1 (stereo not drawn)	48 µM (inactive)	–	> 100 µM (inactive)	> 100 µM (inactive)	> 100 µM (inactive)	16.6 µM (inactive)	> 100 µM (inactive)	14.8 µM (inactive)	> 100 µM (inactive)	46.8 µM (inactive)	41 µM (inactive)	> 100 µM (inactive)	66.2 µM (inactive)	> 100 µM (inactive)	83.8 µM (inactive)	49.1 µM (inactive)	15.2 µM (inactive)	–	–	–
O=C(CC(C(=O)c1ccsc1)c1ccsc1)c1ccsc1 (stereo not drawn)	58.2 µM (inactive)	25.5 µM (inactive)	> 100 µM (inactive)	68.5 µM (inactive)	73.6 µM (inactive)	39.4 µM (inactive)	> 100 µM (inactive)	> 100 µM (inactive)	> 100 µM (inactive)	43.5 µM (inactive)	54.6 µM (inactive)	46.1 µM (inactive)	43.4 µM (inactive)	> 100 µM (inactive)	56.5 µM (inactive)	> 100 µM (inactive)	36.5 µM (inactive)	44 µM (inactive)	> 100 µM (inactive)	–
C[N+](C)(Cc1ccc(NC(=O)CCCC(=O)ON2C(=O)CCC2=O)cc1)c1ccccc1	< 0.01 µM (active)	–	< 0.01 µM (active)	< 0.01 µM (active)	< 0.01 µM (active)	< 0.01 µM (active)	< 0.01 µM (active)	< 0.01 µM (active)	< 0.01 µM (active)	< 0.01 µM (active)	< 0.01 µM (active)	< 0.01 µM (active)	< 0.01 µM (active)	< 0.01 µM (active)	< 0.01 µM (active)	0.0234 µM (active)	< 0.01 µM (active)	–	–	–
O=Cc1c(C(=O)O)[nH]c(=O)[nH]c1=O	> 100 µM (inactive)	–	> 100 µM (inactive)	> 100 µM (inactive)	> 100 µM (inactive)	> 100 µM (inactive)	> 100 µM (inactive)	> 100 µM (inactive)	–	98.6 µM (inactive)	> 100 µM (inactive)	> 100 µM (inactive)	> 100 µM (inactive)	> 100 µM (inactive)	> 100 µM (inactive)	> 100 µM (inactive)	> 10 µM (inactive)	> 100 µM (inactive)	> 100 µM (inactive)	> 100 µM (inactive)
ClCCN(CCCl)c1ccc(/C=N/Nc2ccnc3ccccc23)cc1	1.84 µM (inactive)	1.76 µM (inactive)	2.18 µM (inactive)	1.63 µM (inactive)	1.31 µM (inactive)	1.86 µM (inactive)	2.33 µM (inactive)	1.89 µM (inactive)	3.26 µM (inactive)	1.66 µM (inactive)	1.39 µM (inactive)	2.01 µM (inactive)	1.21 µM (inactive)	1.41 µM (inactive)	2.17 µM (inactive)	2 µM (inactive)	–	1.45 µM (inactive)	1.89 µM (inactive)	–
